The record followed here is US9950062B2, “Compounds and compositions as TLR activity modulators” (priority 2009, dated 2018).

Data set [1] has as its system CD4+ T-cells, CD19+ B-cells. The experiment in a line: Activation markers on T-cells and B-cells in spleen and draining lymph nodes. The class given is in vivo.
The test system of data set [2] is serum cytokines (IL-6, mKC, MCP-1). The experiment in a line: Serum cytokines 24 hours after immunization. The class given is in vivo. Here is the method:
Serum cytokines are measured 24 hours after immunization with compound 6, with or without aluminium hydroxide adjuvant, or with buffer alone. Levels of IL-6 and mKC are both about ˜4-fold higher after administration of compound 6 without adjuvant, and levels of MCP-1 are ˜20-fold higher (compared to vehicle alone). […] Similarly, adsorption to aluminium hydroxide adjuvant decreases both the proportion of CD4+ T-cells which are also CD69+ and the proportion of CD19+ B-cells which are also CD86+, and this effect is seen in both the spleen and in draining lymph nodes. For example, adsorption reduces the proportion of CD86+ B-cells from ˜75% to ˜15%.

In a further data set the test system is strain NZ98. The experiment in a line: Serum bactericidal antibody (SBA) assay after immunization with 5CVMB. The class given is in vivo, MenB. The following applies: compound pre-adsorbed to aluminium hydroxide adjuvant (25 μg or 100 μg) vs adjuvant alone or compound alone. Here is the method:
The MenB antigens are tested for in vivo immunogenic potency using a serum bactericidal antibody (SBA) assay.

Data set [3] in a line: Adsorption to aluminum hydroxide, LC-MS/MS of supernatant. Particulars: 10 mM histidine buffer pH 6.8; final compound concentration 0.1 mg/mL; 37° C. for 5 hours; 100% minus % unbound. The method, then:
The resulting solution was diluted 10-fold with blank histidine buffer to a final compound concentration of 0.1 mg/mL. Diluted solutions were incubated at 37° C. for 5 hours. The samples were centrifuged at 14,000 rpm for 10 minutes to pellet the insoluble. The supernatant (along with an internal standard) was then evaluated by LC-MS/MS using a ballistic gradient (from 5% CH3CN-0.5% formic acid to 95% CH3CN-1.0% formic acid in 3.5 minutes) on a Waters Atlantis dC18 (50 mm×2.1 mm) column at room temperature against a calibration curve prepared at known compound concentrations ranging from 0.005 to 50 μM. The concentration in the supernatant was calculated as % unbound to alum compared to control; the % bound to alum was calculated as 100% minus % unbound.

The nature of data set [4]: Muscle levels 24 hours after intramuscular injection. The following applies: 24 hours after intramuscular injection (100 μg) with protein antigens, Balb/C mice.
For another data set, the system named is five different strains. Kind of data set: Strain coverage of sera after immunization with modified 5CVMB. The class given is in vivo, MenB. Particulars: compound pre-adsorbed to aluminium hydroxide. The text has this: 2010 claiming priority from U.S. Ser. No. 61/237,576 (SEQ ID NO: 126 therein).
[5] abbreviates: in combination with aluminium hydroxide adjuvant.
[6] abbreviates: with aluminium hydroxide adjuvant.
[7] abbreviates: without aluminium hydroxide adjuvant.

For `Cc1ccc2c(c1)nc(N)c1ncc(CCc3ccc(OCCOCCOCCC(F)(F)P(=O)(O)O)cc3C)cc12` [Compound 6, 3-(2-(2-(4-(2-(5-amino-8-methylbenzo[f][1,7]naphthyridin-2-yl)ethyl)-3-methylphenoxy)ethoxy)ethoxy)-1,1-difluoropropylphosphonic acid], the “proportion of CD86+ B-cells” value was roughly 15% in data set [1] (adsorbed to aluminium hydroxide adjuvant) and roughly 75% in data set [1] (without adsorption to aluminium hydroxide adjuvant). For the same molecule, in data set [1] (adsorbed vs unadsorbed, spleen and draining lymph nodes), the “effect of adsorption on proportion of CD4+ T-cells which are also CD69+” value is listed as “decreases”. The “serum IL-6 level compared to vehicle alone” value in data set [2] (setting [5]) is less than 2 fold; in data set [2] (without adjuvant), roughly 4 fold. Further, the “serum MCP-1 level compared to vehicle alone” value in data set [2] (setting [5]) is given as less than 2 fold; in data set [2] (without adjuvant), roughly 20 fold. Also, the “serum mKC level compared to vehicle alone” value is listed as less than 2 fold in data set [2] (setting [5]) and roughly 4 fold in data set [2] (without adjuvant). In addition, the “bactericidal (SBA) titer against strain NZ98” value with strain NZ98 was “large increase in SBA titer”. Further, the “% bound to alum” value in data set [3] amounted to 98.2%. The figures for the “muscle level of compound” value in data set [4] (setting [6]) and in data set [4] (setting [7]) were “readily detected” and “undetectable”, respectively.
Take `Cc1cc(OCCOCCOCCP(=O)(O)O)ccc1CCc1cnc2c(N)nc3cc(CCC(=O)O)ccc3c2c1` [Compound 20, 3-(5-amino-2-(2-methyl-4-(2-(2-(2-phosphonoethoxy)ethoxy)ethoxy)phenethyl)benzo[f][1,7]naphthyridin-8-yl)propanoic acid]: in data set [3], the “% bound to alum” value came out at 97.0%. Besides, the entries for the “muscle level of compound” value in data set [4] (setting [6]) and in data set [4] (setting [7]) were “readily detected” and “undetectable”, respectively. Also, in the data set with five different strains, the “strain coverage compared to aluminium hydroxide alone” value is “improves the strain coverage”.
